“Also recorded” adds a separate entry of the source.
Legend:
NIH3T3 cells [1] = assay: Inhibition of RSL-3-induced ferroptosis, flow cytometry (annexinV / 7-AAD); format: cell-based, Murine; settings: RSL-3 1.13 µM for 6 h, with simultaneous necrostatin
Procedure: (§1) • Figure 1: Overview of chemical structures of different necrostatins. Structural differences between Nec-1f in comparison to known necroptosis inhibitors Nec-1 and Nec-1s. Highlighted are the main residues involved in facilitating protection from necroptosis and/or ferroptosis. • Figure 2: Biotinylation of Nec-1. Simplified scheme of linking the target molecule Nec-1 to a biotin anker. […] (A, B) Inhibition of cell death by Nec-1f in NIH3T3 cells was assessed by flow cytometry. Cells were treated with the ferroptosis inducer RSL-3 (1.13 µM) for 6 h with or without simultaneous substitution of necrostatins. The percentage of cells positive for annexinV and 7-AAD was recorded. (C, D) Viability of NIH3T3 cells after induction of ferroptosis. Cells were treated with 1.13 µM RSL-3 for 6 h and collected for flow cytometry. […] (A, B) Inhibition of necroptotic cell death by Nec-1f in NIH3T3 cells was assessed by flow cytometry. […] The percentage of cells positive for annexinV and 7-AAD was recorded. […] (A, B) After 48h mice were sacrificed and serum creatinine levels and serum urea levels were measured as markers of renal function and intoxication. […]
(§2) Phosphatidylserine exposure to the outer cell membrane of apoptotic cells or at the inner plasma membrane of necrotic cells and incorporation of 7-AAD into necrotic cells were quantified by fluorescence-activated cell sorting (FACS) analysis. […]

NIH3T3 cells [2] = assay: Inhibition of TNF/Birinapant/zVAD (TSZ)-induced necroptosis, flow cytometry (annexinV / 7-AAD); format: cell-based, Murine; settings: TNF + Birinapant + z-VAD-fmk (TSZ), 18 h
Procedure: as §1, §2

[3] = Murine kidney ischemia-reperfusion injury model; format: in vivo, C57BL/6 mice; settings: mice, 30 min ischemia
Procedure: • Figure 1: Overview of chemical structures of different necrostatins. Structural differences between Nec-1f in comparison to known necroptosis inhibitors Nec-1 and Nec-1s. Highlighted are the main residues involved in facilitating protection from necroptosis and/or ferroptosis. • Figure 2: Biotinylation of Nec-1. Simplified scheme of linking the target molecule Nec-1 to a biotin anker. […] (A, B) Inhibition of cell death by Nec-1f in NIH3T3 cells was assessed by flow cytometry. Cells were treated with the ferroptosis inducer RSL-3 (1.13 µM) for 6 h with or without simultaneous substitution of necrostatins. The percentage of cells positive for annexinV and 7-AAD was recorded. (C, D) Viability of NIH3T3 cells after induction of ferroptosis. Cells were treated with 1.13 µM RSL-3 for 6 h and collected for flow cytometry. […] (A, B) Inhibition of necroptotic cell death by Nec-1f in NIH3T3 cells was assessed by flow cytometry. Cells were treated with the TNF, Birinapant and z-VAD-fmk (TSZ) to induce necroptosis. After 18 h necroptosis induction with or without simultaneous substitution of necrostatins the cells were harvested and stained for flow cytometry. The percentage of cells positive for annexinV and 7-AAD was recorded. (C, D) Viability of NIH3T3 cells 18h after induction of necroptosis via TSZ treatment. […] Animals were subjected to 30 min of ischemia after i.p. injection of 0.6 mg Nec-1f per kg bodyweight or the respective vehicle control in PBS. (A, B) After 48h mice were sacrificed and serum creatinine levels and serum urea levels were measured as markers of renal function and intoxication. Error bars represent standard deviation. • Figure 6: Synthesis of 5-[(7-Chloro-1H-indol-3-yl)methyl]-3-methyl-2-thioxo-imidazolidin-4-one (1-3; Nec-1f) according to example 2. • Figure 7: Synthesis of 5-[(3aS,4R,6aR)-2-Oxo-1,3,3a,4,6,6a-hexahydrothieno[3,4-d]imidazol-4-yl]-N-[[1-[2-[2-[2-[[3-[(1-methyl-5-oxo-2-thioxo-imidazolidin-4-yl)methyl]-1H-indol-7-yl]oxy]ethoxy]ethoxy]ethyl]triazol-4-yl]methyl]pentanamide (2-8; biotinylated Nec-1) according to example 3. […]

[4] = 0.6 mg Nec-1f per kg bodyweight i.p. 15 min before ischemia, 48 h after reperfusion

CN1C(=O)C(Cc2c[nH]c3c(Cl)cccc23)NC1=S (centres unmarked) [Nec-1f, 5-[(7-Chloro-1H-indol-3-yl)methyl]-3-methyl-2-thioxo-imidazolidin-4-one]
assays used to detect ferroptosis (cell death / viability, annexinV and 7-AAD) (NIH3T3 cells [1]): protects cells from undergoing ferroptosis; also recorded: reversed | assays used to detect necroptosis (cell death / viability, annexinV and 7-AAD) (NIH3T3 cells [2]): protects cells from undergoing necroptosis; also recorded: reversed | protection in animal model of renal ischemia-reperfusion injury ([3]; 0.6 mg Nec-1f per kg bodyweight i.p.): protective | serum creatinine levels (marker of renal function) [3, 4]: reversed | serum urea levels (intoxication marker) [3, 4]: reversed

Source: patent publication EP3875086A1, “DUAL-INHIBITORS OF CELLULAR NECROPTOSIS AND FERROPTOSIS FOR USE IN THE TREATMENT OF ORGAN TRANSPLANT PATIENTS” (Technische Universität Dresden, priority 2020, dated 2021)
